Tested on: human bladder carcinoma (HT-1376) tumors
Experiment: OCT decorrelation time in tumors grown in dorsal skin-fold window chamber model
Assay type: in vivo
Conditions: mice, single tail vein injection 100 mg/m2, 0, 24 and 48 hours, FIG. 11; cell death confirmed by histological data
Source text: An in-vivo tumor model used in the successful experiment consisted of human bladder carcinoma (HT-1376) tumors grown within a dorsal skin-fold window chamber model in a plurality of mice. […] A custom built 36 kHz swept source OCT system (similar to system 100) was used for in-vivo acquisition of data. For each imaging time point, two-dimensional frames of OCT data were acquired at 200 frames per second over approximately 8 seconds. Each frame contained 180 axial scans and covered a lateral distance of 3 mm. Data sets were acquired from imaging planes within the window chamber of each mouse. Method 200 was applied to each pixel location of an ROI within tumors at 0 hours, 24 hours and 48 hours to obtain an average decorrelation time at each of 0 hours, 24 hours and 48 hours.

N.N.[Cl][Pt][Cl] [cisplatin]
average decorrelation time within tumor ROI: increase in average decorrelation time

Source: patent US20130275051A1, “COMPUTING DEVICE AND METHOD FOR DETECTING CELL DEATH IN A BIOLOGICAL SAMPLE” (priority 2011, published 2013)
